Assay results: patent US4261892A, “2,4,6-Tris-(substituted-amino)-s-triazines” (American Cyanamid Company, priority 1979, dated 1981)
Where two headings read alike, the source gives them in different places.

What was measured:
[1] = test system: Adjuvant Arthritis In Rats; experiment: Adjuvant-induced arthritis in rats (chronic inflammation accompanied by joint destruction); assay type: in vivo, Royal Hart, Wistar strain rats; conditions: for inhibition in vivo at 0.25 mg/kg / inhibition in vivo at 0.5 mg/kg / inhibition in vivo at 2 mg/kg / inhibition in vivo at 1 mg/kg / inhibition in vivo at 18.8 mg/kg / inhibition in vivo at 37.5 mg/kg / inhibition in vivo at 75 mg/kg / inhibition in vivo at 150 mg/kg: Rattus norvegicus
Experimental: Groups of three Royal Hart, Wistar strain rats weighing 200±10 grams each were injected intradermally in the right hind paw with Freund's adjuvant (dried human tubercle bacilli in a mineral oil vehicle) at a dose of 2 mg./kg. of body weight. […] On the 14th and 21st day post challenge the diameter of the injected paw (primary lesion) was measured by micrometer caliper. The volume of inflamed paws were estimated from these measurements and the results are expressed as percent inhibition of swelling as compared to controls. At the same time, the other inflamed sites, such as ears, paws and tail (secondary lesions) were observed and each rat was graded as to degree of inflammation and swelling present. The grading is based on a scale of 0 to 24 where 0 represents a complete absence of induced arthritic nodules and 24 represents the maximum degree of inflammation. The mean grade for each treated group is calculated and the effects of each compound are expressed as percent inhibition of the control grade.

[2] = test system: arthritic paw swelling / joint and bone deterioration; conditions: literature (Wong et al., Bobalick et al.); cited from earlier work
[3] = oral 0.25 mg./kg. once daily days 0-13, Day 14
[4] = oral 0.25 mg./kg. once daily days 0-13, Day 21
[5] = oral 0.5 mg./kg. once daily days 0-13, Day 14
[6] = oral 0.5 mg./kg. once daily days 0-13, Day 21
[7] = oral 1 mg./kg. once daily days 0-13, Day 14
[8] = oral 1 mg./kg. once daily days 0-13, Day 21
[9] = oral 2 mg./kg. once daily days 0-13, Day 14
[10] = oral 2 mg./kg. once daily days 0-13, Day 21
[11] = oral 18.8 mg./kg. once daily days 0-13, Day 14
[12] = oral 18.8 mg./kg. once daily days 0-13, Day 21
[13] = oral 37.5 mg./kg. once daily days 0-13, Day 14
[14] = oral 37.5 mg./kg. once daily days 0-13, Day 21
[15] = oral 75 mg./kg. once daily days 0-13, Day 14
[16] = oral 75 mg./kg. once daily days 0-13, Day 21
[17] = oral 150 mg./kg. once daily days 0-13, Day 14
[18] = oral 150 mg./kg. once daily days 0-13, Day 21

COc1ccc2c(c1)c(CC(=O)O)c(C)n2C(=O)c1ccc(Cl)cc1 [Indomethacin]
inhibition in vivo at 0.25 mg/kg ([1]; 336 h, oral 0.25 mg./kg. once daily days 0-13, Day 14, read-out: % Inhibition of Swelling (primary lesion) Day 14): 30% | inhibition in vivo at 0.5 mg/kg ([1]; 336 h, oral 0.5 mg./kg. once daily days 0-13, Day 14, read-out: % Inhibition of Swelling (primary lesion) Day 14): 40% | inhibition in vivo at 2 mg/kg ([1]; 336 h, oral 2 mg./kg. once daily days 0-13, Day 14, read-out: % Inhibition of Swelling (primary lesion) Day 14): 51% | inhibition in vivo at 0.25 mg/kg ([1]; 504 h, oral 0.25 mg./kg. once daily days 0-13, Day 21, read-out: % Inhibition of Swelling (primary lesion) Day 21): 4% | inhibition in vivo at 0.5 mg/kg ([1]; 504 h, oral 0.5 mg./kg. once daily days 0-13, Day 21, read-out: % Inhibition of Swelling (primary lesion) Day 21): 20% | inhibition in vivo at 1 mg/kg ([1]; 504 h, oral 1 mg./kg. once daily days 0-13, Day 21, read-out: % Inhibition of Swelling (primary lesion) Day 21): 19% | inhibition in vivo at 2 mg/kg ([1]; 504 h, oral 2 mg./kg. once daily days 0-13, Day 21, read-out: % Inhibition of Swelling (primary lesion) Day 21): 24% | inhibition in vivo at 1 mg/kg ([1]; po, 336 h, read-out: % Inhibition of Swelling (primary lesion) Day 14): 46% | % Inhibition of Control Grade (secondary lesion) Day 14 [1, 3]: 22% | Mean Weight Gain (grams) Day 14 [1, 3]: 51 grams | % Inhibition of Control Grade (secondary lesion) Day 21 [1, 4]: 4% | Mean Weight Gain (grams) Day 21 [1, 4]: 57 grams | Dead/Treated at 21 Days ([1]; oral 0.25 mg./kg. once daily days 0-13): 0/9 | % Inhibition of Control Grade (secondary lesion) Day 14 [1, 5]: 25% | Mean Weight Gain (grams) Day 14 [1, 5]: 53 grams | % Inhibition of Control Grade (secondary lesion) Day 21 [1, 6]: 17% | Mean Weight Gain (grams) Day 21 [1, 6]: 51 grams | Dead/Treated at 21 Days ([1]; oral 0.5 mg./kg. once daily days 0-13): 5/54 | % Inhibition of Control Grade (secondary lesion) Day 14 [1, 7]: 34% | Mean Weight Gain (grams) Day 14 [1, 7]: 63 grams | % Inhibition of Control Grade (secondary lesion) Day 21 [1, 8]: 20% | Mean Weight Gain (grams) Day 21 [1, 8]: 65 grams | Dead/Treated at 21 Days ([1]; oral 1 mg./kg. once daily days 0-13): 9/54 | % Inhibition of Control Grade (secondary lesion) Day 14 [1, 9]: 38% | Mean Weight Gain (grams) Day 14 [1, 9]: 68 grams | % Inhibition of Control Grade (secondary lesion) Day 21 [1, 10]: 25% | Mean Weight Gain (grams) Day 21 [1, 10]: 68 grams | Dead/Treated at 21 Days ([1]; oral 2 mg./kg. once daily days 0-13): 8/57 | arthritic paw swelling [2]: inhibit arthritic paw swelling | joint and bone deterioration [2]: prevent joint and bone deterioration

CCCCC1C(=O)N(c2ccccc2)N(c2ccccc2)C1=O [Phenylbutazone]
inhibition in vivo at 18.8 mg/kg ([1]; 336 h, oral 18.8 mg./kg. once daily days 0-13, Day 14, read-out: % Inhibition of Swelling (primary lesion) Day 14): 31% | inhibition in vivo at 37.5 mg/kg ([1]; 336 h, oral 37.5 mg./kg. once daily days 0-13, Day 14, read-out: % Inhibition of Swelling (primary lesion) Day 14): 56% | inhibition in vivo at 75 mg/kg ([1]; 336 h, oral 75 mg./kg. once daily days 0-13, Day 14, read-out: % Inhibition of Swelling (primary lesion) Day 14): 62% | inhibition in vivo at 150 mg/kg ([1]; 336 h, oral 150 mg./kg. once daily days 0-13, Day 14, read-out: % Inhibition of Swelling (primary lesion) Day 14): 75% | inhibition in vivo at 18.8 mg/kg ([1]; 504 h, oral 18.8 mg./kg. once daily days 0-13, Day 21, read-out: % Inhibition of Swelling (primary lesion) Day 21): 7% | inhibition in vivo at 37.5 mg/kg ([1]; 504 h, oral 37.5 mg./kg. once daily days 0-13, Day 21, read-out: % Inhibition of Swelling (primary lesion) Day 21): 14% | inhibition in vivo at 75 mg/kg ([1]; 504 h, oral 75 mg./kg. once daily days 0-13, Day 21, read-out: % Inhibition of Swelling (primary lesion) Day 21): 28% | inhibition in vivo at 150 mg/kg ([1]; 504 h, oral 150 mg./kg. once daily days 0-13, Day 21, read-out: % Inhibition of Swelling (primary lesion) Day 21): 44% | % Inhibition of Control Grade (secondary lesion) Day 14 [1, 11]: 4% | Mean Weight Gain (grams) Day 14 [1, 11]: 50 grams | % Inhibition of Control Grade (secondary lesion) Day 21 [1, 12]: 8% | Mean Weight Gain (grams) Day 21 [1, 12]: 45 grams | Dead/Treated at 21 Days ([1]; oral 18.8 mg./kg. once daily days 0-13): 2/21 | % Inhibition of Control Grade (secondary lesion) Day 14 [1, 13]: 18% | Mean Weight Gain (grams) Day 14 [1, 13]: 53 grams | % Inhibition of Control Grade (secondary lesion) Day 21 [1, 14]: 13% | Mean Weight Gain (grams) Day 21 [1, 14]: 53 grams | Dead/Treated at 21 Days ([1]; oral 37.5 mg./kg. once daily days 0-13): 5/39 | % Inhibition of Control Grade (secondary lesion) Day 14 [1, 15]: 27% | Mean Weight Gain (grams) Day 14 [1, 15]: 51 grams | % Inhibition of Control Grade (secondary lesion) Day 21 [1, 16]: 15% | Mean Weight Gain (grams) Day 21 [1, 16]: 50 grams | Dead/Treated at 21 Days ([1]; oral 75 mg./kg. once daily days 0-13): 2/39 | % Inhibition of Control Grade (secondary lesion) Day 14 [1, 17]: 54% | Mean Weight Gain (grams) Day 14 [1, 17]: 40 grams | % Inhibition of Control Grade (secondary lesion) Day 21 [1, 18]: 31% | Mean Weight Gain (grams) Day 21 [1, 18]: 50 grams | Dead/Treated at 21 Days ([1]; oral 150 mg./kg. once daily days 0-13): 2/27
